Reference: ChEMBL document CHEMBL1138636, “Potent inhibitors of the HIV-1 protease incorporating cyclic urea P1-P2 scaffold” (Bioorg Med Chem Lett, 2004)

Target: Human immunodeficiency virus type 1 protease (Human immunodeficiency virus 1, UniProt Q72874)
Test: Potency to inhibit HIV-1 protease

SMILES	Ki
Cc1cc(CN2CC(Cc3ccccc3)N(C[C@@H](O)C[C@@H](Cc3ccccc3)C(=O)NC3c4ccccc4C[C@H]3O)C2=O)cc(C)c1C (stereo not given in full)	100 nM
C[C@]1(Cc2ccccc2)C[C@H](Cc2ccccc2)N(C[C@@H](O)C[C@@H](Cc2ccccc2)C(=O)N[C@H]2c3ccccc3C[C@H]2O)C1=O	170 nM
O=C(NC1c2ccccc2C[C@H]1O)[C@H](Cc1ccccc1)C[C@H](O)CN1C(=O)N(Cc2ccccn2)CC1Cc1ccccc1 (stereo not given in full)	41 nM
CS(=O)(=O)c1ccc(CN2CC(Cc3ccccc3)N(C[C@@H](O)C[C@@H](Cc3ccccc3)C(=O)NC3c4ccccc4C[C@H]3O)C2=O)cc1 (stereo not given in full)	300 nM
O=C(NC1c2ccccc2C[C@H]1O)[C@H](Cc1ccccc1)C[C@H](O)CN1C(=O)[C@@H](Cc2ccccc2)CC1Cc1ccccc1 (stereo not given in full)	0.06 nM
COc1ccc(CN2CC(Cc3ccccc3)N(C[C@@H](O)C[C@@H](Cc3ccccc3)C(=O)NC3c4ccccc4C[C@H]3O)C2=O)cc1 (stereo not given in full)	5.6 nM
O=C(NC1c2ccccc2C[C@H]1O)[C@H](Cc1ccccc1)C[C@H](O)CN1C(=O)N(Cc2ccccc2)CC1Cc1ccccc1 (stereo not given in full)	1.2 nM

Next, values leading:

Ki	SMILES
3.2 nM	O=C(NC1c2ccccc2C[C@H]1O)[C@H](Cc1ccccc1)C[C@H](O)CN1C(=O)N(Cc2cccc(F)c2)CC1Cc1ccccc1 (stereo not given in full)
190 nM	O=C(NC1c2ccccc2C[C@H]1O)[C@H](Cc1ccccc1)C[C@H](O)CN1C(=O)N(Cc2ccncc2)CC1Cc1ccccc1 (stereo not given in full)
18 nM	O=C(NC1c2ccccc2C[C@H]1O)[C@H](Cc1ccccc1)C[C@H](O)CN1C(=O)N(Cc2cccnc2)CC1Cc1ccccc1 (stereo not given in full)
